Reference: PubChem BioAssay AID602151 (Vanderbilt Specialized Chemistry Center, 2011)

Target: Phospholipase D1 (Homo sapiens) (UniProt Q13393)
Experiment: cellular phospholipase D1 inhibition IC50 – cell-based, dose response (AID 602151)
Conditions: cellular PLD1 activity assay

Phospholipase D1 (Homo sapiens), sequence (Q13393 whole entry, looked up): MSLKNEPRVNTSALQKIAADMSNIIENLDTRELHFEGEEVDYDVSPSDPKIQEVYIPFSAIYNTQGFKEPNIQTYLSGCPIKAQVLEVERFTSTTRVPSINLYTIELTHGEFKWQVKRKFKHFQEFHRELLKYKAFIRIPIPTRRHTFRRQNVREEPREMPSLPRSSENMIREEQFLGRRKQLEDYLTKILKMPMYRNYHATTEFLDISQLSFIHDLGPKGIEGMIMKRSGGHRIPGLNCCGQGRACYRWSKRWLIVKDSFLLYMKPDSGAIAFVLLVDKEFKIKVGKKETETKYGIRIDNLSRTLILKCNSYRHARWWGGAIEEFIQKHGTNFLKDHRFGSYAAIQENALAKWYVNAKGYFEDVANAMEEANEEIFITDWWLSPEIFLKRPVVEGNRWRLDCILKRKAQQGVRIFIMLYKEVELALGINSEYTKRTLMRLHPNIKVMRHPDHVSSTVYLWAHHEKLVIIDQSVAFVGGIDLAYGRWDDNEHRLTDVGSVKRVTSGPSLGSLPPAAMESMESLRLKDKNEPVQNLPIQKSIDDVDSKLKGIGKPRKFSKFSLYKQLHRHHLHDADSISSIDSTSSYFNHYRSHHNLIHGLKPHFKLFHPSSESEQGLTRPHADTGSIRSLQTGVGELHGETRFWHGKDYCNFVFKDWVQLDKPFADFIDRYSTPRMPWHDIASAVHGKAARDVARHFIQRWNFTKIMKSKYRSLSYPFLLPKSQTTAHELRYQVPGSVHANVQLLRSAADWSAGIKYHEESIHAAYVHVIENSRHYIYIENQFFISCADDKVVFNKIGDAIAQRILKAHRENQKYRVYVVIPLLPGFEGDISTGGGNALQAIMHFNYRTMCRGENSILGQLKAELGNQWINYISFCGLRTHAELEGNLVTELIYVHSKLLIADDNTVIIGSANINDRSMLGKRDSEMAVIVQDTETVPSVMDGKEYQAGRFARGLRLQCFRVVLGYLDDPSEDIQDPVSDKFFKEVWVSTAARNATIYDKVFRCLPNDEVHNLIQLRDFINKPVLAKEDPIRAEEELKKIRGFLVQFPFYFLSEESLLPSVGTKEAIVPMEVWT
Phospholipase D1 (Homo sapiens), sequence (Q13393 whole entry, looked up): as above

Row | SMILES | IC50 [µM]
1 | O=C(C#Cc1ccccc1)NCCN1CCC2(CC1)C(=O)NCN2c1ccccc1 | 2.13
2 | O=C(NCCN1CCC2(CC1)C(=O)NCN2c1ccccc1)c1cnc2ccccc2c1 | 1.9
3 | O=C(NCCN1CCC2(CC1)C(=O)NCN2c1cccc(Cl)c1)c1cc2cc(F)ccc2[nH]1 | 0.25
4 | O=C(NCCN1CCC2(CC1)C(=O)NCN2c1ccc(Br)cc1)c1ccc(F)cc1 | 10
5 | Cc1cccc(C(=O)N[C@@H](C)CN2CCC3(CC2)C(=O)NCN3c2ccccc2)c1 | 3.4
6 | O=C(NCCN1CCC2(CC1)C(=O)NCN2c1cccc(Cl)c1)c1cnc2ccccc2c1 | 0.87
7 | O=C(NCCN1CCC2(CC1)C(=O)NCN2c1ccc(F)cc1)c1cc2cc(F)ccc2[nH]1 | 0.29
8 | O=C(NCCN1CCC2(CC1)C(=O)NCN2c1ccc(Br)cc1)c1cnc2ccccc2c1 | 2.7
9 | O=C(NCCN1CCC2(CC1)C(=O)NCN2c1ccc(F)c(F)c1)c1ccc2ccccc2c1 | 2.81
10 | O=C(NCCN1CCC2(CC1)C(=O)NCN2c1ccc(Br)cc1)c1ccc2ccccc2c1 | 5.9
11 | O=C(NCCN1CCC2(CC1)C(=O)NCN2c1cccc(Cl)c1)c1ccc(F)cc1 | 3.47
12 | O=C(NCCN1CCC2(CC1)C(=O)NCN2c1ccc(F)cc1)c1cnc2ccccc2c1 | 2
13 | O=C(NCCN1CCC2(CC1)C(=O)NCN2c1cccc(Cl)c1)c1ccc2ccccc2c1 | 1.2
14 | O=C(NCCN1CCC2(CC1)C(=O)NCN2c1ccc(Cl)cc1)c1cnc2ccccc2c1 | 3.5
15 | O=C(NCCN1CCC2(CC1)C(=O)NCN2c1ccccc1)c1cc2ccccc2s1 | 0.15
16 | COc1cc(C(=O)NCCN2CCC3(CC2)C(=O)NCN3c2ccccc2)ccc1N | 5.9
17 | O=C(NCCN1CCC2(CC1)C(=O)NCN2c1cccc(F)c1)c1cc2cc(F)ccc2[nH]1 | 0.21
18 | C[C@@H](CN1CCC2(CC1)C(=O)NCN2c1ccccc1)NC(=O)c1ccc(F)c(F)c1 | 0.15
19 | O=C(NCCN1CCC2(CC1)C(=O)NCN2c1ccc(F)c(F)c1)c1ccc(F)cc1 | 5.78
20 | O=C(NCCN1CCC2(CC1)C(=O)NCN2c1ccc(Cl)cc1)c1cc2cc(F)ccc2[nH]1 | 0.335
21 | O=C(NCCN1CCC2(CC1)C(=O)NCN2c1ccc(Br)cc1)c1cc2cc(F)ccc2[nH]1 | 2.66
22 | O=C(NCCN1CCC2(CC1)C(=O)NCN2c1ccc(F)cc1)c1ccc(F)cc1 | 14
23 | O=C(NCCN1CCC2(CC1)C(=O)NCN2c1ccc(Cl)cc1)c1ccc2ccccc2c1 | 2.27
24 | O=C(NCCN1CCC2(CC1)C(=O)NCN2c1cccc(F)c1)c1cnc2ccccc2c1 | 2.5
25 | O=C(NCCN1CCC2(CC1)C(=O)NCN2c1ccc(Cl)cc1)c1ccc(F)cc1 | 5.59
26 | O=C(NCCN1CCC2(CC1)C(=O)NCN2c1ccc(F)cc1)c1ccc2ccccc2c1 | 1.7
27 | C[C@@H](CN1CCC2(CC1)C(=O)NCN2c1cccc(F)c1)NC(=O)c1ccc2ccccc2c1 | 0.01
28 | O=C(NCCN1CCC2(CC1)C(=O)NCN2c1ccc(F)c(F)c1)c1cc2cc(F)ccc2[nH]1 | 0.39
29 | O=C(NCCN1CCC2(CC1)C(=O)NCN2c1ccc(F)c(F)c1)c1cnc2ccccc2c1 | 2.06
